# According to ChEMBL document CHEMBL1201862, “PubChem BioAssay data set” (2004):
# Calls of active or inactive are those of the source.
# Columns and labels:
# [1] = target: Heat shock protein HSP 90-alpha (Homo sapiens, UniProt P07900); format: functional, organism-based
# Large T antigen = Large T antigen (Simian virus 40, UniProt P03070); format: functional, Betapolyomavirus macacae;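 note: Confirmatory-stage PubChem screen for compounds that inhibit SV40 T antigen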
# [2] = target: Induced myeloid leukemia cell differentiation protein Mcl-1 (Homo sapiens, UniProt Q07820); format: functional
# Induced myeloid leukemia cell differentiation protein Mcl-1, sequence (Q07820 whole entry): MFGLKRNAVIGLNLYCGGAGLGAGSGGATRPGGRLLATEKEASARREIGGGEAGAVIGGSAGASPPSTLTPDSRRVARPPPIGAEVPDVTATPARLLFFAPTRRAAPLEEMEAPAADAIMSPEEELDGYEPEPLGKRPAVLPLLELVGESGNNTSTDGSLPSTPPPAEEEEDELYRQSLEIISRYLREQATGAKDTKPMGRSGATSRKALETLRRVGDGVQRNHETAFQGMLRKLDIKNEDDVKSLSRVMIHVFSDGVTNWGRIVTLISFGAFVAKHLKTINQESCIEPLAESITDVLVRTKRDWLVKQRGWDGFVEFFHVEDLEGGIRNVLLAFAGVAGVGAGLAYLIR
# Genome polyprotein = Genome polyprotein (dengue virus type 2, UniProt P29990); assay: flavivirus cap methylation enzyme inhibition – biochemical, confirmation dose response, primary screen (AID 588689); format: functional
# Genome polyprotein, sequence (P29990 2492-3391 limits assumed): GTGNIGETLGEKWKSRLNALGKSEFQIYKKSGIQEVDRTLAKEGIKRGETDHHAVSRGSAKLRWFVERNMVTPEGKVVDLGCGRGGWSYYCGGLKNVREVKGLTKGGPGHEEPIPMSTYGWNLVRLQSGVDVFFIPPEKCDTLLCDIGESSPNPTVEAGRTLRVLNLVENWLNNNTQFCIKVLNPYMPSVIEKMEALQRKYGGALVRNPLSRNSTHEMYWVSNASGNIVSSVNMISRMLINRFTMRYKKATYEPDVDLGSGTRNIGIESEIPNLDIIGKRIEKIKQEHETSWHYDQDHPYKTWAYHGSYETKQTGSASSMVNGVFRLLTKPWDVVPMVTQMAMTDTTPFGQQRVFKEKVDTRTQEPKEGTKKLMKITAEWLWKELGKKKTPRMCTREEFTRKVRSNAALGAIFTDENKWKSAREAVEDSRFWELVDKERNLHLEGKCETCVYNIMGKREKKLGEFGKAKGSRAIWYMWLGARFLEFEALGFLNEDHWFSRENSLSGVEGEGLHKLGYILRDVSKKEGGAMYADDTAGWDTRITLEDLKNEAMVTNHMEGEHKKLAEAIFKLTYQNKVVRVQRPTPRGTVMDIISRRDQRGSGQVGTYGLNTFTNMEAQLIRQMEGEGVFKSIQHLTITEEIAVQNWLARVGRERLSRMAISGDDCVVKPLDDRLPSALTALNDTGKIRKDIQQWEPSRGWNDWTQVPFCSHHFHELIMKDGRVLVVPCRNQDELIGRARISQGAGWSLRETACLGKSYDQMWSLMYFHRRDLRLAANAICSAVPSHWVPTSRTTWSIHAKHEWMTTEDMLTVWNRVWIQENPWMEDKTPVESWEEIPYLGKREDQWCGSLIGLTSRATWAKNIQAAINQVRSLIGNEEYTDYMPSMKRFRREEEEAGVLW
# [3] = target: T1, Polyadenylate-binding protein 1 (Homo sapiens, UniProt P11940); assay: MLLE binding blockers, Cy5 peptide tracer – biochemical, fluorescence polarization, Cy5-PAM2 peptide, secondary, miRNA deadenylation inhibitor project, dose response (AID 602260); format: functional; details: read-out: IC50_Mean
# T1 sequence (P11940 whole entry, the tested form may be a part): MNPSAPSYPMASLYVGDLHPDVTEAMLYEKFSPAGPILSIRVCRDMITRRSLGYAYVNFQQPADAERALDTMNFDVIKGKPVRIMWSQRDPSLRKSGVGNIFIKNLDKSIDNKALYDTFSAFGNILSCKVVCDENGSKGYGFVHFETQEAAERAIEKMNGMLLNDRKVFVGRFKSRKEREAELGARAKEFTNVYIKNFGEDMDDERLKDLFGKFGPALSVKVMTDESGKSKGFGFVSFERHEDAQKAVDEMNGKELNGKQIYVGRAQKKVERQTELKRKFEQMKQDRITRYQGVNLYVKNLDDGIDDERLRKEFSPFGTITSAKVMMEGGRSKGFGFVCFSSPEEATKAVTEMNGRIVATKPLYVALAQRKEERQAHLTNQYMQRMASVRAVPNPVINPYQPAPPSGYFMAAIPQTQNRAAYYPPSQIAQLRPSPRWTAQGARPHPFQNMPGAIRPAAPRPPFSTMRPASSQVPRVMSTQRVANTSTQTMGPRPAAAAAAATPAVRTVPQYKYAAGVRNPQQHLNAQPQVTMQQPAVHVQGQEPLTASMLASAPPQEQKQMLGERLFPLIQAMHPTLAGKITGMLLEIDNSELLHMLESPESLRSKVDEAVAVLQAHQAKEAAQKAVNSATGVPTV
# [4] = target: T1, Polyadenylate-binding protein 1; assay: MLLE domain peptide-binding blockers, IC50 – biochemical, fluorescence polarization, FITC-PAM2 peptide, dose response (AID 602259); format: functional; details: read-out: IC50_Mean
# [5] = target: T2, Corticotropin-releasing factor receptor 2/Corticotropin-releasing factor-binding protein (Homo sapiens, UniProt P24387+Q13324); assay: activators of CRF receptor 2 with binding protein – uHTS hits, confirmation (AID 602473); format: functional; details: read-out: EC50_Mean
# T2 sequence (Q13324 whole entry): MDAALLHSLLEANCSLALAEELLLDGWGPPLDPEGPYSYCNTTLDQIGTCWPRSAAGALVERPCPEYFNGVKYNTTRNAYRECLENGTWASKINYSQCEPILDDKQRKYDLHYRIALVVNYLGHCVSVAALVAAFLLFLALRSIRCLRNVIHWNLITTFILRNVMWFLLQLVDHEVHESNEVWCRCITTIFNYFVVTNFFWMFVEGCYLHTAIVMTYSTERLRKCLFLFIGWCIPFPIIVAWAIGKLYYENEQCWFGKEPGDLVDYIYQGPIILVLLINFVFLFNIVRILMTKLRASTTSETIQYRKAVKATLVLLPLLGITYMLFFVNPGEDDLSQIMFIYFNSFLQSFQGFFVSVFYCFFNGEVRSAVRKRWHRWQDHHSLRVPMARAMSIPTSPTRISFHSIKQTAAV
# T2 sequence (P24387 whole entry): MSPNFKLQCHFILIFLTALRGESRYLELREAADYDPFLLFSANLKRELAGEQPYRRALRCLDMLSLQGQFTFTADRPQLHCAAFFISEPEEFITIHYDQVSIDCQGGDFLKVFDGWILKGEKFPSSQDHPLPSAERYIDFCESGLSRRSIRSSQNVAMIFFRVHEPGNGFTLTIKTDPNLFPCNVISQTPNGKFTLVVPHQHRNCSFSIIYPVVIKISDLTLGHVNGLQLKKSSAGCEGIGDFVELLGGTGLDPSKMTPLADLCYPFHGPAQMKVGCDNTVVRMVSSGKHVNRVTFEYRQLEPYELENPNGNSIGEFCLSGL
# [6] = target: T3, Rac GTPase-activating protein 1 (Homo sapiens, UniProt Q9H0H5); assay: blockers of MgcRacGAP-driven Rac1 GTP hydrolysis – biochemical, ADP Hunter fluorescence, primary and confirmatory, confirmation (AID 624330); format: functional
# T3 sequence (Q9H0H5 whole entry): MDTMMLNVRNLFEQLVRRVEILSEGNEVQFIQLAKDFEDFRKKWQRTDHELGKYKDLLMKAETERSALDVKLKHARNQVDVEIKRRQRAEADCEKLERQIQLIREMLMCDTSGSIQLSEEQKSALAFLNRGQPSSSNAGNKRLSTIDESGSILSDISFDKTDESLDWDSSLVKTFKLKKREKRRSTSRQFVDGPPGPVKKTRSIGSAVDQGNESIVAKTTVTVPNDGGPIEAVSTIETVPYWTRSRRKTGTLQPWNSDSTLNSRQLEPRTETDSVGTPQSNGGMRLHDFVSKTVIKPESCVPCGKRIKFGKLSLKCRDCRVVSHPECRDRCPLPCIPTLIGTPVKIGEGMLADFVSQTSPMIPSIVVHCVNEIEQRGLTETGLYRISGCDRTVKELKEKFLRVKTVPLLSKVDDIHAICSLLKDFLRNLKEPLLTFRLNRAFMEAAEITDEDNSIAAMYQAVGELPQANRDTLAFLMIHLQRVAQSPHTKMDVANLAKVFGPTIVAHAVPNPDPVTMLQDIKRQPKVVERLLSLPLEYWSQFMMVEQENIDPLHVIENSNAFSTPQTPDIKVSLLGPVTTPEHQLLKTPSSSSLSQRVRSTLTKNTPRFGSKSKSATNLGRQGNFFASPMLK
# [7] = target: T4, Short transient receptor potential channel 4 (Mus musculus, UniProt Q9QUQ5); assay: calcium entry via TRPC4 opening agents – cell-based, HEK293 TRPC4/mu-opioid, Fluo-4 calcium, dose response (AID 434937); format: functional
# T4 sequence (Q9QUQ5 whole entry): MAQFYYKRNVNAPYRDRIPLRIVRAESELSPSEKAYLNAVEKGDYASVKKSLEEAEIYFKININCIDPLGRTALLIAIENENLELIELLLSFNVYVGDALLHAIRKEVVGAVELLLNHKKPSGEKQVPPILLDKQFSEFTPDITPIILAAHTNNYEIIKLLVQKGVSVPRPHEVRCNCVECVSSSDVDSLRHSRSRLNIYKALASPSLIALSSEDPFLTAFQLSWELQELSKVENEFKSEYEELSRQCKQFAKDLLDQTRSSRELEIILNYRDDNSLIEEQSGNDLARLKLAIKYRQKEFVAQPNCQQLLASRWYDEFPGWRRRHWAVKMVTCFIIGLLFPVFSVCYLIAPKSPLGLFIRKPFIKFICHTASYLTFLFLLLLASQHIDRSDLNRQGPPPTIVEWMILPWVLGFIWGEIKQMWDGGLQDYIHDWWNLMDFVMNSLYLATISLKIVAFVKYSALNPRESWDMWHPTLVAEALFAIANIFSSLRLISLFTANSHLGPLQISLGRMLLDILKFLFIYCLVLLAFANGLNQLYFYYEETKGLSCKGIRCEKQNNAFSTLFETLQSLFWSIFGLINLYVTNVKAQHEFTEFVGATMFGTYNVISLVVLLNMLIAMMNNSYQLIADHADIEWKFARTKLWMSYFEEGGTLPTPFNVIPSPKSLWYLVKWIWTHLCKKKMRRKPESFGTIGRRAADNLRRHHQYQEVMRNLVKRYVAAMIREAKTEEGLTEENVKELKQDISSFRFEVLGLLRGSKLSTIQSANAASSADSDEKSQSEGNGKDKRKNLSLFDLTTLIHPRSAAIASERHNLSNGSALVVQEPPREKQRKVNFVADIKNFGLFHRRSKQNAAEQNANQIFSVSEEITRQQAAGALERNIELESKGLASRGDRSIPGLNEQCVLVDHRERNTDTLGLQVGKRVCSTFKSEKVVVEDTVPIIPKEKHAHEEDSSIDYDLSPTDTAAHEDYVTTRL
# [8] = target: FAD-linked sulfhydryl oxidase ALR (Homo sapiens, UniProt P55789); assay: ALR-catalysed DTT oxidation blockers – biochemical, H2O2 detection, luminescence, cherry-pick, dose response (AID 493248)
# FAD-linked sulfhydryl oxidase ALR, sequence (P55789 whole entry): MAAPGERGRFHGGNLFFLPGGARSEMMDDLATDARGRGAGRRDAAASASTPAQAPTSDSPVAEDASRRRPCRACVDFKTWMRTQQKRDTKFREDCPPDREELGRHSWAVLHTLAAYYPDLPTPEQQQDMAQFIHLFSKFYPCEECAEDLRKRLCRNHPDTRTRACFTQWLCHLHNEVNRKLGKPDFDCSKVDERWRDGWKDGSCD
# INS1 = assay: INS-1E survival protection against cytokine death – cell-based, luminescence, retest, dose response (AID 449756); format: functional; details: Rattus norvegicus;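 note: cell death triggered by IL-1 beta plus TNF-alpha plus IFN-gamma mixture; protective hits raise ATP signal compared with cytokine alone wells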
# P388/ADR = assay: cells; format: functional; details: Mus musculus
# SN12K1 = assay: cells; format: functional; details: Homo sapiens
# P388 = assay: cells; format: functional; details: Mus musculus
# [9] = intracellular Trypanosoma cruzi inhibitors in host cells – cell-based, plate reader, cherry-pick samples, set 3, dose response (AID 651818); format: functional;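 note: compounds incubated with infected cells for about four days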
# [10] = Luminescence Cell-Based Dose Retest to Confirm Inhibitors of Cancer Stem Cells. [Related pubchem assays (depositor defined):AID2717, AID2721]; format: functional; details: Homo sapiens
# Large T antigen, sequence (P03070 whole entry): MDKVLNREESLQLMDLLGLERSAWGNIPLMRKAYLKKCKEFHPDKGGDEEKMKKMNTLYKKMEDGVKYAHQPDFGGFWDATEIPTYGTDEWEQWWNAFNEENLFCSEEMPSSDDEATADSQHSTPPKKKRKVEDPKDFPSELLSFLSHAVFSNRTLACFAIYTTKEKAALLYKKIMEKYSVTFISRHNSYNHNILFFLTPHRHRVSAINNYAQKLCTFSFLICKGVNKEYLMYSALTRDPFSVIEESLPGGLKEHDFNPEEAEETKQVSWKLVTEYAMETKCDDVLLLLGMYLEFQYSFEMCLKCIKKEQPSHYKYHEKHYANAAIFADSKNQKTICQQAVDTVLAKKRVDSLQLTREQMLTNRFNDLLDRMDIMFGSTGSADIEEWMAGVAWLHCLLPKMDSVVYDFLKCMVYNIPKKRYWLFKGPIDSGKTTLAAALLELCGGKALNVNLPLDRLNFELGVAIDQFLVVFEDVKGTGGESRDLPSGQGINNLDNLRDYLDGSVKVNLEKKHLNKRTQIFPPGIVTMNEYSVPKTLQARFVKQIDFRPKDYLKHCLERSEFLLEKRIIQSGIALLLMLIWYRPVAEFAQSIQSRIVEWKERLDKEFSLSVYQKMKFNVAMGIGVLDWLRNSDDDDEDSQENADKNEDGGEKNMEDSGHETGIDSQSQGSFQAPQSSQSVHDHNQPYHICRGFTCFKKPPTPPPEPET
compound,measurement,setting,value
Cc1ccc2nc(-c3ccc(NS(C)(=O)=O)cc3)cc(-c3ccccc3)c2c1,AC50,[1],8 µM (active)
COC(=O)CSc1nnc(CNc2ccc(OC)cc2)n1C,IC50,Large T antigen,45.8 µM (active)
C=CCc1c(C)nc(SCCC)nc1O,IC50,[2],9.1 µM (not active)
Cc1ccc(S(=O)(=O)N2[C@@H](c3cccc(Cl)c3)C(C(=O)O)=CC[C@H]2c2ccc(C(C)C)cc2)cc1,IC50,Genome polyprotein,36.3 µM (active)
O=C1CC(N2CCN(c3nc4ccccc4s3)CC2)C(=O)N1Cc1cccs1 (stereo not drawn),AC50,[1],3.34 µM (active)
Cc1ccc(NC(S)=Nc2ccccn2)cc1C,IC50,[3],> 66 µM (inactive)
same,IC50,[4],> 66 µM (inactive)
CCOC(=O)c1c(-c2ccc(C)cc2)csc1NC(=O)/C(C#N)=C/c1ccc(O)c(OC)c1,EC50,[5],2.87 µM (active)
same,IC50,[2],> 54 µM (active)
O=C(CSc1ccsc1[N+](=O)[O-])N1CCN(c2ccc(Cl)cc2)CC1,IC50,[2],5.8 µM (active)
Cc1noc(O)c1N=Nc1c(Cl)cccc1Cl,AC50,[1],8.73 µM (active)
Cc1nn(CCc2nc(-c3ccco3)cs2)c2nc(O)cc(C(F)(F)F)c12,IC50,Genome polyprotein,> 100 µM (active)
COC(=O)C1=C(O)/C(=C\c2ccc(O)c(OC)c2)N=C1C,IC50,Large T antigen,7.79 µM (active)
same,IC50,[6],20.2 µM (active)
Cc1cccc(N(C)C(=O)CCS(=O)(=O)c2cc3c(cc2Cl)NC(=O)CO3)c1,IC50,[3],> 66 µM (inactive)
same,IC50,[4],> 66 µM (inactive)
COc1ccc(N2CCN(Cc3nc4ccccc4n3C)CC2)cc1,EC50,[7],6.68 µM (active)
same,AC50,[8],8.25 µM (active)
COc1ccc(-c2c(-c3ccc(O)cc3O)n[nH]c2C)cc1OC,IC50,Large T antigen,33.6 µM (active)
CC(C)c1ccc(O)c(NC(=S)NC(=O)CCc2ccccc2)c1,IC50,[3],> 66 µM (inactive)
same,IC50,[4],> 66 µM (inactive)
Cc1cc(-c2ccccc2)cc(C)[n+]1Cc1ccccc1.[O-][Cl+3]([O-])([O-])[O-],EC50,[7],1.88 µM (active)
same,AC50,INS1,0.719 µM (active)
COc1ccc(/C(C)=N\NC(=O)CSc2nnc(C)s2)cc1,IC50,[3],> 66 µM (inactive)
same,IC50,[4],> 66 µM (inactive)
CNc1nc(N(C)C)nc(N(C)C)n1,GI50,P388/ADR,646 µM (inactive)
same,GI50,SN12K1,1220 µM (inactive)
same,GI50,P388,1070 µM (inactive)
COC(=O)C1C(O)C(C)C(O)C(C)/C=C\C=C(C)C(=O)Nc2c(C)c(OC(C)=O)c3c(c2O)C(=O)C(C)=C2OCOC(=C23)C(C)=CC(C)(O)C(O)C(C)C1O (stereo not drawn),GI50,P388/ADR,20.1 µM (inactive)
same,GI50,SN12K1,30.2 µM (inactive)
same,GI50,P388,15.5 µM (inactive)
Cc1noc(C)c1S(=O)(=O)Nc1cccc2c1O[C@H](CN(C)Cc1ccc(C(=O)Nc3ccccc3N)cc1)[C@H](C)CN([C@H](C)CO)C2=O,AC50,[9],3.53 µM (active)
C[C@H](CO)N1C[C@H](C)[C@@H](CN(C)Cc2ccc(-c3ccccc3)cc2)Oc2c(NC(=O)CCCCCC(=O)Nc3ccccc3N)cccc2C1=O,AC50,[9],1.6 µM (active)
C[C@H]1CN([C@@H](C)CO)C(=O)c2cccc(NS(=O)(=O)c3ccc(Cl)cc3)c2O[C@H]1CN(C)Cc1ccc(C(=O)Nc2ccccc2N)cc1,AC50,[9],2.28 µM (active)
C[C@H](CO)N1C[C@H](C)[C@H](CN(C)S(=O)(=O)c2cccs2)Oc2c(NC(=O)c3nc4ccccc4s3)cccc2C1=O,AC50,[9],1.67 µM (active)
C[C@@H]1CN([C@H](C)CO)C(=O)c2cccc(NC(=O)CCCCCC(=O)Nc3ccccc3N)c2O[C@H]1CN(C)CC1CCCCC1,AC50,[9],3.18 µM (active)
Cc1ccc(S(=O)(=O)Nc2ccc3c(c2)C(=O)N([C@@H](C)CO)C[C@@H](C)[C@@H](CN(C)Cc2ccc(Cl)c(Cl)c2)O3)cc1,AC50,[9],3.36 µM (active)
C[C@H]1CN([C@@H](C)CO)C(=O)Cc2cc(N(C)C)ccc2O[C@@H]1CN(C)Cc1ccc(C(F)(F)F)cc1,AC50,[9],0.991 µM (active)
COc1cc(C2c3cc4c(cc3[C@@H](Nc3cccc(O)c3)C3COC(=O)[C@H]23)OCO4)cc(OC)c1O (stereo partly drawn),GI50,P388/ADR,0.251 µM (active)
same,GI50,SN12K1,0.279 µM (active)
same,GI50,P388,< 0.01 µM (active)
COc1ccc2[nH]c3c(=O)n(Cc4ccc(C(=O)N5CCCC5)cc4)c(=S)[nH]c3c2c1,IC50,[2],3.5 µM (not active)
O=[N+]([O-])c1cccc(N/N=C/c2cc([N+](=O)[O-])ccc2O)c1,IC50,[2],< 0.4 µM (active)
CCOc1cc(/C=N/NC(=O)CCn2nnc3ccccc32)ccc1O,IC50,Large T antigen,10.4 µM (active)
COc1ccc(OC)c(/C=N/NC(=O)CCc2ccc(O)c(O)c2)c1,IC50,Large T antigen,19.1 µM (active)
C=C(C)C(=O)OC1CCC2(C)C(CCC3C2CCC2(C)C(c4ccc(=O)oc4)CC4OC432)C1 (stereo not drawn),GI50,P388/ADR,4.68 µM (inactive)
same,GI50,SN12K1,4.1 µM (inactive)
same,GI50,P388,2.3 µM (inactive)
O=C1C=CC(=O)N1c1cccc(-c2ccccc2)c1,AC50,[1],0.378 µM (active)
Oc1cccc2cnccc12,IC50,Large T antigen,17.1 µM (active)
O=[N+]([O-])c1oc2ccc3ccccc3c2c1CCO,AC50,[1],1.23 µM (active)
Clc1ccc(C(c2ccccc2Cl)C(Cl)Cl)cc1 (stereo not drawn) [MITOTANE],GI50,P388/ADR,10.8 µM (inactive)
same,AC50,[10],3.78 µM (active)
same,GI50,SN12K1,19.6 µM (inactive)
same,GI50,P388,7.48 µM (inactive)
C=CCCCCCCCCC(=O)O [UNDECYLENIC ACID],GI50,P388/ADR,72.3 µM (inactive)
same,GI50,SN12K1,92 µM (inactive)
same,GI50,P388,> 80.4 µM (inactive)
